# Measurements published in patent US7550451B2, “Progesterone receptor modulators with increased antigonadotropic activity for female birth control and hormone replacement therapy” (Bayer Schering Pharma AG, priority 2002, dated 2009).
# What was measured:
# Progesterone receptor = target: T1, Progesterone receptor (Oryctolagus cuniculus, UniProt P06186); test: Receptor binding affinity, progesterone receptor (competitive binding, 3H-ORG 2058); settings: Progesterone = 100%; uterus cytosol of estradiol-primed rabbit
# T1 construct: Uterus cytosol of the estradiol-primed rabbit; from tissue; host or cells: uterus cytosol of estradiol-primed rabbit
# T1 sequence (P06186 1-930): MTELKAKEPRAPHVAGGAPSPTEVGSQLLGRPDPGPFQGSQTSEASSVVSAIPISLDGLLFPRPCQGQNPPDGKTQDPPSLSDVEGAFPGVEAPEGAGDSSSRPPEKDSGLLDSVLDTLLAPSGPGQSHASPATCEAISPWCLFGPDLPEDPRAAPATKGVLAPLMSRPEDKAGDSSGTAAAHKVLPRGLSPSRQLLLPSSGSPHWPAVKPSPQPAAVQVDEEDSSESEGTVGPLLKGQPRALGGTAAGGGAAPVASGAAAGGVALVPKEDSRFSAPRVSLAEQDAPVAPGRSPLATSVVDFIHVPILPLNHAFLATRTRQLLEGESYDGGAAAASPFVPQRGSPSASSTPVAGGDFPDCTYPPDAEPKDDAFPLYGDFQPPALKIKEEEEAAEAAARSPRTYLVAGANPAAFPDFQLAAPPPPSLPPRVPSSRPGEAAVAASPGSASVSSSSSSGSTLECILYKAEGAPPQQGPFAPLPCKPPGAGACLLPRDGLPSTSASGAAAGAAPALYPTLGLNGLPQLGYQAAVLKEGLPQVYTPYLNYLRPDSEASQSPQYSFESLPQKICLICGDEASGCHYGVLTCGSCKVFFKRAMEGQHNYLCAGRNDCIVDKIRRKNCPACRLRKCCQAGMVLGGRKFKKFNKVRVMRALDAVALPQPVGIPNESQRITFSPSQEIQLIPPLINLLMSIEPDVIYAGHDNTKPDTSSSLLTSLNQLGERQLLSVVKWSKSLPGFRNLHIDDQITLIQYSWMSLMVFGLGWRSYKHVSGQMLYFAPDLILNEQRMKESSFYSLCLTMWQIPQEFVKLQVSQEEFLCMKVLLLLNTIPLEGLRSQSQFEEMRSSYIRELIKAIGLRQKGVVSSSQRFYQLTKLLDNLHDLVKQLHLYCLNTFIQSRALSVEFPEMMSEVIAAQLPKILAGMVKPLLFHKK
# Method: (§1) The receptor binding affinity was determined by competitive binding of a specifically binding ^3H-labeled hormone (tracer) and the compound to be tested on receptors in the cytosol from animal target organs. In this case, receptor saturation and reaction equilibrium were sought.
# (§2) The tracers and increasing concentrations of the compound to be tested (competitor) were co-incubated with the receptor-containing cytosol fraction at 0-4° C. over 18 hours. After separation of the unbonded tracer with carbon-dextran suspension, the receptor-bonded tracer portion was measured for each concentration, and the IC50 was determined from the concentration sequence. As a quotient of the IC50 values of the reference substance and the compound to be tested (×100%), the relative molar binding affinity (RBA) was calculated (RBA of the reference substance=100%).
# Uterus cytosol of the estradiol-primed rabbit; homogenized in TED buffer (20 mmol of Tris/HCl, pH 7.4; 1 mmol of ethylenediamine tetraacetate, 2 mmol of dithiothreitol) with 250 mmol of saccharose; stored at −30° C. Tracer: ^3H-ORG 2058, 5 nmol; reference substance: progesterone.
# Glucocorticoid receptor = target: T2, Glucocorticoid receptor (Rattus norvegicus, UniProt P06536); test: Receptor binding affinity, glucocorticoid receptor (competitive binding, 3H-dexamethasone); settings: Dexamethasone = 100%; thymus cytosol of adrenalectomized rat
# T2 construct: Thymus cytosol of the adrenalectomized rat; from tissue; host or cells: thymus cytosol of adrenalectomized rat
# T2 sequence (P06536 1-795): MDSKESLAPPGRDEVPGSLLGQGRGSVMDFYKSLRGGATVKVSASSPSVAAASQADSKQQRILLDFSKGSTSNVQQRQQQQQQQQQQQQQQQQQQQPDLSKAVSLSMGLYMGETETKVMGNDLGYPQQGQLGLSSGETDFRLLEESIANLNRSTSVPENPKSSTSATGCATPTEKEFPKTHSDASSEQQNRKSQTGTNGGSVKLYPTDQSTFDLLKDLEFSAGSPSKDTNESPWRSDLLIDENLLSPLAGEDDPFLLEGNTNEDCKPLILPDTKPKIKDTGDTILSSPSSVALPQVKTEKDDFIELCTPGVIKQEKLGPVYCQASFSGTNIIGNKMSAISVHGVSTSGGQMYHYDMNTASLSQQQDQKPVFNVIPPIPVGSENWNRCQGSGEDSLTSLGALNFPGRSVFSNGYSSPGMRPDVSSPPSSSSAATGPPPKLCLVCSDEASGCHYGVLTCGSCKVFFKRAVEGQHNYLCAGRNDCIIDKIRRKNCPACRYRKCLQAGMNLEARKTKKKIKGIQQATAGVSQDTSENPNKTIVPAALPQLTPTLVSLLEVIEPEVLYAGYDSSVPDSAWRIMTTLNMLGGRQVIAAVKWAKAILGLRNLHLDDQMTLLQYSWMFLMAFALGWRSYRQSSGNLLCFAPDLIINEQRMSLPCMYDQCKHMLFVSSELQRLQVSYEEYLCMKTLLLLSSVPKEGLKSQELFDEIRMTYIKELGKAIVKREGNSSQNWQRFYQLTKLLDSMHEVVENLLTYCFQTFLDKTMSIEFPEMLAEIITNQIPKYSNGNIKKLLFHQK
# Method: as §1, §2
# Thymus cytosol of the adrenalectomized rat, thymi stored at −30° C.; buffer: TED. Tracer: ^3H-Dexamethasone, 20 nmol; reference substance: dexamethasone.
# adult female rats = test: Nidation-inhibiting test (antifertile effects in the perinidation phase); type: in vivo; settings: day 5-7 of pregnancy, rat
# Method: The determination of the progesterone-antagonistic activities was carried out on adult female rats in the nidation-inhibiting test. The principle of the test is described as follows: progesterone preserves pregnancy in all stages. An early-abortive action can accordingly be expected from competitive progesterone antagonists. Female rats (Schoe strain: WIST Tierzucht GmbH Schönwalde) with a weight of 180-200 g were subjected daily to a cycle control and paired up in proestrus. The beginning of pregnancy was determined by detecting sperm in the vaginal smear on the same day (=day 1 of pregnancy=d1 p.c.). From the 5th-7th day of pregnancy, the test substances were injected subcutaneously daily. On the 9th day, vaginal smears were taken, then the animals were autopsied and the uteri were prepared. The degeneration of implants and pathological, hemorrhagic and otherwise abnormal nidation sites were counted as abortions and are shown in Table 2.
SMILES,PR relative molar binding affinity (RBA) (Progesterone receptor) [%],GR relative molar binding affinity (RBA) (Glucocorticoid receptor) [%],Rate of Animals with Complete Inhibition of Nidation (adult female rats; 1.0 mg/animal/day s.c.),Rate of Animals with Complete Inhibition of Nidation (adult female rats; 3.0 mg/animal/day s.c.),Rate of Animals with Complete Inhibition of Nidation (adult female rats; 10.0 mg/animal/day s.c.),Rate of Animals with Complete Inhibition of Nidation (adult female rats; 0.03 mg/animal/day s.c.),Rate of Animals with Complete Inhibition of Nidation (adult female rats; 0.1 mg/animal/day s.c.),Rate of Animals with Complete Inhibition of Nidation (adult female rats; 0.3 mg/animal/day s.c.)
"C[C@]12C[C@H](c3ccc(/C=N/O)cc3)C3=C4CCC(=O)C=C4CC[C@H]3[C@@H]1CC[C@@H]2O [Example 1, 4-(17β-Hydroxy-3-oxoestra-4,9-dien-11β-yl)benzaldehyde-1(E)-oxime]",26,3,0/5,0/5,5/5,–,–,–
"CC1(O)CCC2C3CCC4=CC(=O)CCC4=C3C(c3ccc(C=NO)cc3)CC21C (stereo not drawn) [Example 2, 4-(17β-Hydroxy-17α-methyl-3-oxoestra-4,9-dien-11β-yl)benzaldehyde-1(E)-oxime]",95,12,5/5,–,–,0/4,0/5,2/5
